Results from patent US20130122541A1, “MICROORGANISM PRODUCTION OF HIGH-VALUE CHEMICAL PRODUCTS, AND RELATED COMPOSITIONS, METHODS AND SYSTEMS” (The Regents of the University of Colorado, priority 2010, published 2013).
Converted amounts (≈) assume the structure as drawn. Read-outs that look alike come from different tables or passages of the source.

Tested on: E. coli
Assay: microbe, parasite or virus in culture
Format: cell-based
Conditions: for MIC: Escherichia coli, BW25113, read-out: MIC Assay Result (g/L 3-HP), aerobic; for % Increase Over Control: aerobic
Protocol: For MIC evaluations, the final results are expressed in chemical agent concentrations determined by analysis of the stock solution by HPLC (i.e., see Subsection IIIb).
The minimum inhibitory concentration (MIC) was determined aerobically in a 96 well-plate format. […] Media supplements were added according to levels reported in the Supplements Table, where specified. Overnight cultures of strains were grown in triplicate in 5 mL LB (with antibiotic where appropriate). A 1% (v/v) inoculum was introduced into a 5 ml culture of M9 minimal media.

O=C(O)CCO [3-HP, 3-hydroxypropionic acid]
MIC (strain BW25113, no modifications (control), M9): 27.5 g/L (≈ 305 mM)
MIC (strain BX_00002.0: BW25113 wild type, pKK223-mcs1 (control), M9 + Amp (100 μg/mL)): 20 g/L
MIC (strain BX_00003.0: BW25113 wild type, pBT-3 (control), M9 + Cm (20 μg/mL)): 25 g/L
MIC (strain BX_00118.0: BW25113 wild type, pJ251 (control), M9 + Kan (20 μg/mL)): 25 g/L
MIC (strain BX_00138.0: BW25113 wild type, pSmart-LC-Kan (control), M9 + Kan (20 μg/mL)): 25 g/L
MIC (strain BX_00142.0: BW25113 wild type, pSmart-LC-kan, pBT-3 (control), M9 + Kan (20 μg/mL), Cm (20 μg/mL)): 20 g/L
MIC (strain BX_00144.0: BW25113 wild type, pSmart-HC-Amp (control), M9 + Amp (100 μg/mL)): 25 g/L
MIC (strain BX_00300.0: BW25113 wild type, pSmart-LC-Kan-tyrA-aroF, M9 + Kan 20 μg/mL): 35 g/L
MIC (strain BX_00302.0: BW25113 wild type, pSmart-LC-Kan-folA-ORF, M9 + Kan 20 μg/mL): 30 g/L
MIC (strain BX_00305.0: BW25113 wild type, pSmart-LC-Kan-pheA-C1, M9 + Kan 20 μg/mL): 35 g/L
MIC (strain BX_00307.0: BW25113 wild type, pSmart-LC-Kan-tyrA-C1, M9 + Kan 20 μg/mL): 35 g/L
MIC (strain BX_00309.0: BW25113 wild type, pSmart-LC-Kan-cynTS, M9 + Kan 20 μg/mL): 35 g/L
MIC (strain BX_00310.0: BW25113 wild type, pSmart-LC-Kan-glyA, M9 + Kan 20 μg/mL): 35 g/L
MIC (strain BX_00312.0: BW25113 wild type, pSmart-LC-Kan-serA, M9 + Kan 20 μg/mL): 35 g/L
MIC (strain BX_00313.0: BW25113 wild type, pSmart-LC-Kan-folD, M9 + Kan 20 μg/mL): 30 g/L
MIC (strain BX_00314.0: BW25113 wild type, pSmart-LC-Kan-aroE, M9 + Kan 20 μg/mL): 35 g/L
MIC (strain BX_00315.0: BW25113 wild type, pSmart-LC-Kan-aroKB C1, M9 + Kan 20 μg/mL): 35 g/L
MIC (strain BX_00317.0: BW25113 wild type, pSmart-LC-Kan-ilvA operon, M9 + Kan 20 μg/mL): 35 g/L
MIC (strain BX_00318.0: BW25113 wild type, pSmart-LC-Kan-cysM, M9 + Kan 20 μg/mL): 35 g/L
MIC (strain BX_00319.0: BW25113 wild type, pK223-aroH, M9 + Amp 100 μg/mL + 1 mM IPTG): 30 g/L
MIC (strain BX_00322.0: BW25113 wild type, pJ61-speFED, M9 + Kan 20 μg/mL): 35 g/L
MIC (strain BX_00323.0: BW25113 wild type, pJ61-aroG, M9 + Kan 20 μg/mL): 35 g/L
MIC (strain BX_00324.0: BW25113 wild type, pJ61-thrA, M9 + Kan 20 μg/mL): 35 g/L
MIC (strain BX_00325.0: BW25113 wild type, pJ61-asd, M9 + Kan 20 μg/mL): 35 g/L
MIC (strain BX_00326.0: BW25113 wild type, pJ61-ilvA, M9 + Kan 20 μg/mL): 35 g/L
MIC (strain BX_00327.0: BW25113 wild type, pJ61-cysM, M9 + Kan 20 μg/mL): 35 g/L
MIC (strain BX_00335.0: BW25113 wild type, pSmart-HC-Amp-prs, M9 + Amp 100 μg/mL): 35 g/L
MIC (strain BX_00336.0: BW25113 wild type, pSmart-HC-Amp-nrdAB, M9 + Amp 100 μg/mL): 35 g/L
MIC (strain BX_00337.0: BW25113 wild type, pSmart-HC-Amp-nrdEF, M9 + Amp 100 μg/mL): 35 g/L
MIC (strain BX_00352.0: BW25113 wild type, pSmart-LC-Kan-metC C1, M9 + Amp 100 μg/mL): 35 g/L
MIC (strain BX_00353.0: BW25113 wild type, pSmart-HC-Amp-metC, M9 + Amp 100 μg/mL): 45 g/L
MIC (strain BX_00354.0: BW25113 wild type, pSmart-HC-Amp-cynTS, M9 + Amp 100 μg/mL): 45 g/L
MIC (strain BX_00356.0: BW25113 wild type, pSmart-HC-Amp-LysA, M9 + Amp 100 μg/mL): 30 g/L
MIC (strain BX_00357.0: BW25113 wild type, pKK223-aroH*445, M9 + Amp 100 μg/mL + 1 mM IPTG): 30 g/L
MIC (strain BX_00359.0: BW25113 wild type, pKK223-aroH*457, M9 + Amp 100 μg/mL + 1 mM IPTG): 35 g/L
MIC (strain BX_00361.0: BW25113 wild type, pACYC177 (Kan only)-cynTS, M9 + Kan 20 μg/mL): 35 g/L
MIC (strain BX_00362.0: BW25113 wild type, pACYC177 (Kan only)-aroH, M9 + Kan 20 μg/mL + 1 mM IPTG): 30 g/L
MIC (strain BX_00363.0: BW25113 wild type, pACYC177 (kan only)-speB, M9 + Kan 20 μg/mL): 35 g/L
MIC (strain BX_00364.0: BW25113 wild type, pACYC177 (Kan only)-metE (Version1) (SS090608_13), M9 + Kan 20 μg/mL + 1 mM IPTG): 35 g/L
MIC (strain BX_00365.0: BW25113 wild type, pACYC177 (Kan only)-metC (Version1) (SS090608_17), M9 + Kan 20 μg/mL): 35 g/L
MIC (strain BX_00368.0: BW25113 wild type, pBT-3-cynTS, M9 + Cm (20 μg/mL)): 30 g/L
MIC (strain BX_00370.0: BW25113 wild type, pBT-3-speB, M9 + Cm (20 μg/mL)): 30 g/L
% Increase Over Control (strain BX_00301.0 (pSmart-LC-Kan-folA-C1)): 40%
% Increase Over Control (strain BX_00302.0 (pSmart-LC-Kan-folA-ORF)): 20%
% Increase Over Control (strain BX_00304.0 (pSmart-LC-Kan-menA-ORF)): 40%
% Increase Over Control (strain BX_00305.0 (pSmart-LC-Kan-pheA-C1)): 40%
% Increase Over Control (strain BX_00307.0 (pSmart-LC-Kan-tyrA-C1)): 40%
% Increase Over Control (strain BX_00309.0 (pSmart-LC-Kan-cynTS)): 40%
% Increase Over Control (strain BX_00310.0 (pSmart-LC-Kan-glyA)): 40%
% Increase Over Control (strain BX_00312.0 (pSmart-LC-Kan-serA)): 40%
% Increase Over Control (strain BX_00313.0 (pSmart-LC-Kan-folD)): 20%
% Increase Over Control (strain BX_00314.0 (pSmart-LC-Kan-aroE)): 40%
% Increase Over Control (strain BX_00315.0 (pSmart-LC-Kan-aroKB C1)): 40%
% Increase Over Control (strain BX_00317.0 (pSmart-LC-Kan-ilvA operon)): 40%
% Increase Over Control (strain BX_00318.0 (pSmart-LC-Kan-cysM)): 40%
% Increase Over Control (strain BX_00319.0 (pK223-aroH)): 50%
% Increase Over Control (strain BX_00321.0 (pK223-ct-his-thrA)): 75%
% Increase Over Control (strain BX_00322.0 (pJ61-speFED)): 40%
% Increase Over Control (strain BX_00323.0 (pJ61-aroG)): 40%
% Increase Over Control (strain BX_00324.0 (pJ61-thrA)): 40%
% Increase Over Control (strain BX_00325.0 (pJ61-asd)): 40%
% Increase Over Control (strain BX_00326.0 (pJ61-ilvA)): 40%
% Increase Over Control (strain BX_00327.0 (pJ61-cysM)): 40%
% Increase Over Control (strain BX_00334.0 (pSmart-HC-Amp-cadA)): 60%
% Increase Over Control (strain BX_00335.0 (pSmart-HC-Amp-prs)): 40%
% Increase Over Control (strain BX_00336.0 (pSmart-HC-Amp-nrdAB)): 40%
% Increase Over Control (strain BX_00337.0 (pSmart-HC-Amp-nrdEF)): 40%
% Increase Over Control (strain BX_00352.0 (pSmart-LC-Kan-metC C1)): 40%
% Increase Over Control (strain BX_00353.0 (pSmart-HC-Amp-metC)): 80%
% Increase Over Control (strain BX_00354.0 (pSmart-HC-Amp-cynTS)): 80%
% Increase Over Control (strain BX_00356.0 (pSmart-HC-Amp-LysA)): 20%
% Increase Over Control (strain BX_00357.0 (pKK223-aroH*445)): 50%
% Increase Over Control (strain BX_00358.0 (pKK223-aroH*447)): 75%
% Increase Over Control (strain BX_00359.0 (pKK223-aroH*457)): 75%
% Increase Over Control (strain BX_00361.0 (pACYC177 (Kan only)-cynTS)): 40%
% Increase Over Control (strain BX_00362.0 (pACYC177 (Kan only)-aroH)): 20%
% Increase Over Control (strain BX_00363.0 (pACYC177 (kan only)-speB)): 40%
% Increase Over Control (strain BX_00364.0 (pACYC177 (Kan only)-metE)): 40%
% Increase Over Control (strain BX_00365.0 (pACYC177 (Kan only)-metC)): 40%
% Increase Over Control (strain BX_00368.0 (pBT-3-cynTS)): 20%
% Increase Over Control (strain BX_00370.0 (pBT-3-speB)): 20%
